Test results from patent publication US20230174584A1, “Antibiotic Compounds” (priority 2019, published 2023).
Converted amounts (≈) assume the structure as drawn.

Experiments:
Assay type in all cases: cell-based, Staphylococcus aureus
S. aureus ATCC29213 = assay: UDP-MurNAc-pentapeptide accumulation assay; settings: S. aureus ATCC29213, 5 μM, 1 h
Protocol: An overnight culture of bacterial suspension (S. aureus ATCC29213, E. faecium E155, E. faecium E7314 and E. faecium E980) was diluted 100-fold in TSB supplemented with 0.002% p80 and cultured at 37° C. until the optical density of the suspension reached a level equivalent to the 0.5 McFarland standard. Chloramphenicol was added at a final concentration of 130 μg/mL and the culture was incubated for an additional 15 min at 37° C. […] The cultures were incubated at 37° C. for 1 h, after which they were centrifuged to pellet the bacteria. The supernatant was removed and the pellets were resuspended in 1 mL MQ-H2O. The samples were boiled at 100° C. for 15 minutes and subsequently centrifuged at 12000 rpm for 30 minutes. The supernatant of the samples was lyophilized and redissolved in 250 μL buffer A (50 mM ammonium bicarbonate, 5 mM NEt3, pH 8.3). Samples were analyzed by analytical RP-HPLC using a 0-25% buffer B (MeOH) gradient over 25 minutes.
An UDP-MurNAc-pentapeptide accumulation assay was performed to elucidate part of the mechanism of action of the compounds. UDP-MurNAc-pentapeptide is the last soluble precursor of peptidoglycan cell wall biosynthesis. In this assay, live cells accumulate this last soluble precursor when treated with compounds that interfere with the membrane bound stages of peptidoglycan biosynthesis (Sass, V. et al. Human beta-defensin 3 inhibits cell wall biosynthesis in Staphylococci. Infect. Immun. 78, 2793-2800 (2010)).

NRS19 = assay: MIC assay, VISA and VRSA panel
Protocol: (§1) The antibacterial activity of the compounds was tested against a panel of bacteria, including Gram-positive bacteria (S. aureus ATCC29213, S. aureus USA300, S. aureus LIM-2, NR-45881, S. aureus HIP13419, NR-46413, E. faecium E155, E. faecium E7314, E. faecium E980, E. faecalis E1246, E. faecalis E7406 and S. pneumonia 153). The antibacterial activity of the compounds was further tested against S. aureus NY-155, NR-46236, S. aureus HIP12864, NR-46074, S. aureus 880 (BR-VRSA), NR-49120, E. faecalis E1246, E. faecalis E7604, as well as some Gram-negative bacteria (Escherichia coli and Klebsiella pneumoniae). Minimum inhibitory concentrations (MICs) in μg/mL were performed according to the CLSI guidelines. From glycerol stocks, bacterial strains were cultured on blood agar plates and incubated at 37° C. for 18 h. A single colony was transferred to tryptic soy broth (TSB) with 0.002% polysorbate 80 (p80). For the Enterococcus, VISA and VRSA strains, the cultures were grown at 37° C. until the optical density of the suspension reached a level equivalent to the 0.5 McFarland standard. The bacterial suspensions were diluted in TSB with 0.002% p80 to reach a bacterial cell density of 10^6 CFU/mL. In case of the other (vancomycin-sensitive) S. aureus strains, the direct colony suspension method was used. For these strains, after transfer of the colonies to TSB with 0.002% p80, they were immediately diluted to 10^6 CFU/mL, instead of incubated prior to this dilution. In the case of S. pneumonia, direct colony suspension was used by immediately suspending multiple colonies from fresh blood agar plates in TSB+0.002% p80 to an OD600 of 0.5 and subsequent dilution to 10^6 CFU mL^−1 in TSB+0.002% p80+5% lysed horse blood. Antibiotic dilutions for this strains were also made in TSB+0.002% p80+5% lysed horse blood. Both agar and microplates containing S. pneumonia were incubated at 37° C. with 5% CO2 for 24 h with constant shaking (600 rpm). […] The cultures were grown to exponential phase (OD600=0.5) at 37° C. […] In polypropylene 96-well microtiter plates, test compounds were added in biological triplicates and serial diluted 2-fold by transfer and mixing from one well to the next to achieve a final volume of 50 μL per well. An equal volume of bacterial suspension (10^6 CFU mL^−1) was added to the wells. The plates were sealed with breathable membranes and incubated at 37° C. for 24 h with constant shaking (600 rpm). In polypropylene microtiter plates, 100 μL of the test compounds was added to the first row in biological triplicates, and 50 μL of media was added to the other wells. The compounds were subjected to serial dilution by transfer and mixing of 50 μL from one well to the next. Subsequently, 50 μL of bacterial suspension (10^6 CFU/mL) was added to the wells. The plates were sealed with breathable membranes and incubated at 37° C. for 24 h with constant shaking (600 rpm). Positive growth control consisted of wells with bacterial suspension and without antibiotic. Negative growth control consisted of solely media without bacterial suspension or antibiotic. The MICs were determined from the median of a minimum of triplicates.

VRS11a = assay: MIC assay, VISA and VRSA panel
Protocol: as §1

VRS1 = assay: MIC assay, VISA and VRSA panel
Protocol: as §1

VRS5 = assay: MIC assay, VISA and VRSA panel
Protocol: as §1

MRSA USA300 = assay: MIC assay in the presence of sheep serum; settings: MRSA USA300, TSB + 0.002% p80 + 50% sheep serum
Protocol: as §1
The activity of the compounds was further assessed against MRSA USA300 strain in the presence of sheep) serum in another MIC assay. The cultures that grew in the presence of serum used TSB+0.002% P80+50% sheep serum as growth media, as opposed to normal MICs done in only TSB+0.002% P80.

## CCCCCCCNC(N)=Nc1ccc(CN[C@@]2(C)C[C@H](O[C@H]3[C@H](Oc4c5cc6cc4Oc4ccc(cc4Cl)[C@@H](O)[C@@H](NC(=O)[C@@H](CC(C)C)NC)C(=O)N[C@@H](CC(N)=O)C(=O)N[C@H]6C(=O)N[C@H]4C(=O)N[C@H](C(=O)N[C@H](C(=O)O)c6cc(O)cc(O)c6-c6cc4ccc6O)[C@H](O)c4ccc(c(Cl)c4)O5)O[C@H](CO)[C@@H](O)[C@@H]3O)O[C@@H](C)[C@H]2O)cc1 [Compound 5]
S. aureus ATCC29213
  accumulation of UDP-MurNAc-pentapeptide: accumulation of UDP-MurNAc-pentapeptide
NRS19; strain NRS19
  MIC: 0.063 µg/mL (≈ 0.0372 µM)
VRS11a; strain VRS11a
  MIC: 16 µg/mL (≈ 9.44 µM)
VRS1; strain VRS1
  MIC: 16 µg/mL (≈ 9.44 µM)
VRS5; strain VRS5
  MIC: 4 µg/mL (≈ 2.36 µM)
MRSA USA300
  MIC: 0.031 µg/mL

## CCCCCCCCNC(N)=Nc1ccc(CN[C@@]2(C)C[C@H](O[C@H]3[C@H](Oc4c5cc6cc4Oc4ccc(cc4Cl)[C@@H](O)[C@@H](NC(=O)[C@@H](CC(C)C)NC)C(=O)N[C@@H](CC(N)=O)C(=O)N[C@H]6C(=O)N[C@H]4C(=O)N[C@H](C(=O)N[C@H](C(=O)O)c6cc(O)cc(O)c6-c6cc4ccc6O)[C@H](O)c4ccc(c(Cl)c4)O5)O[C@H](CO)[C@@H](O)[C@@H]3O)O[C@@H](C)[C@H]2O)cc1 [Compound 6]
S. aureus ATCC29213
  accumulation of UDP-MurNAc-pentapeptide: accumulation of UDP-MurNAc-pentapeptide
MRSA USA300
  MIC: 0.063 µg/mL

## CCCCCCCCCNC(N)=Nc1ccc(CN[C@@]2(C)C[C@H](O[C@H]3[C@H](Oc4c5cc6cc4Oc4ccc(cc4Cl)[C@@H](O)[C@@H](NC(=O)[C@@H](CC(C)C)NC)C(=O)N[C@@H](CC(N)=O)C(=O)N[C@H]6C(=O)N[C@H]4C(=O)N[C@H](C(=O)N[C@H](C(=O)O)c6cc(O)cc(O)c6-c6cc4ccc6O)[C@H](O)c4ccc(c(Cl)c4)O5)O[C@H](CO)[C@@H](O)[C@@H]3O)O[C@@H](C)[C@H]2O)cc1 [Compound 7]
S. aureus ATCC29213
  accumulation of UDP-MurNAc-pentapeptide: accumulation of UDP-MurNAc-pentapeptide
MRSA USA300
  MIC: 0.063 µg/mL

## CCCCCCN(CCCCCC)C(N)=Nc1ccc(CN[C@@]2(C)C[C@H](O[C@H]3[C@H](Oc4c5cc6cc4Oc4ccc(cc4Cl)[C@@H](O)[C@@H](NC(=O)[C@@H](CC(C)C)NC)C(=O)N[C@@H](CC(N)=O)C(=O)N[C@H]6C(=O)N[C@H]4C(=O)N[C@H](C(=O)N[C@H](C(=O)O)c6cc(O)cc(O)c6-c6cc4ccc6O)[C@H](O)c4ccc(c(Cl)c4)O5)O[C@H](CO)[C@@H](O)[C@@H]3O)O[C@@H](C)[C@H]2O)cc1 [Compound 12]
NRS19; strain NRS19
  MIC: 0.25 µg/mL (≈ 0.142 µM)
VRS11a; strain VRS11a
  MIC: 4 µg/mL (≈ 2.27 µM)
VRS1; strain VRS1
  MIC: 4 µg/mL (≈ 2.27 µM)
VRS5; strain VRS5
  MIC: 1 µg/mL (≈ 0.567 µM)
MRSA USA300
  MIC: 0.063 µg/mL

## CN[C@H](CC(C)C)C(=O)N[C@H]1C(=O)N[C@@H](CC(N)=O)C(=O)N[C@H]2C(=O)N[C@H]3C(=O)N[C@H](C(=O)N[C@H](C(=O)O)c4cc(O)cc(O)c4-c4cc3ccc4O)[C@H](O)c3ccc(c(Cl)c3)Oc3cc2cc(c3O[C@@H]2O[C@H](CO)[C@@H](O)[C@H](O)[C@H]2O[C@H]2C[C@](C)(NCc3ccc(N=C(N)NC/C=C(\C)CCC=C(C)C)cc3)[C@H](O)[C@H](C)O2)Oc2ccc(cc2Cl)[C@H]1O [Compound 14]
S. aureus ATCC29213
  accumulation of UDP-MurNAc-pentapeptide: accumulation of UDP-MurNAc-pentapeptide
MRSA USA300
  MIC: 0.063 µg/mL

## CN[C@H](CC(C)C)C(=O)N[C@H]1C(=O)N[C@@H](CC(N)=O)C(=O)N[C@H]2C(=O)N[C@H]3C(=O)N[C@H](C(=O)N[C@H](C(=O)O)c4cc(O)cc(O)c4-c4cc3ccc4O)[C@H](O[C@H]3C[C@](C)(N)[C@@H](O)[C@H](C)O3)c3ccc(c(Cl)c3)Oc3cc2cc(c3O[C@@H]2O[C@H](CO)[C@@H](O)[C@H](O)[C@H]2O[C@H]2C[C@](C)(NCc3ccc(-c4ccc(Cl)cc4)cc3)[C@@H](O)[C@H](C)O2)Oc2ccc(cc2Cl)[C@H]1O [Oritavancin]
NRS19; Staphylococcus aureus, NRS19
  MIC: 1 µg/mL (≈ 0.558 µM)
VRS11a; Staphylococcus aureus
  MIC: 1 µg/mL (≈ 0.558 µM)
VRS1; Staphylococcus aureus
  MIC: 1 µg/mL (≈ 0.558 µM)
VRS5; Staphylococcus aureus
  MIC: 0.5 µg/mL (≈ 0.279 µM)

## CCCCCCCCCCNCCN[C@@]1(C)C[C@H](O[C@H]2[C@H](Oc3c4cc5cc3Oc3ccc(cc3Cl)[C@@H](O)[C@@H](NC(=O)[C@@H](CC(C)C)NC)C(=O)N[C@@H](CC(N)=O)C(=O)N[C@H]5C(=O)N[C@H]3C(=O)N[C@H](C(=O)N[C@H](C(=O)O)c5cc(O)c(CNCP(=O)(O)O)c(O)c5-c5cc3ccc5O)[C@H](O)c3ccc(c(Cl)c3)O4)O[C@H](CO)[C@@H](O)[C@@H]2O)O[C@@H](C)[C@H]1O [Telavancin, reference compound]
NRS19; Staphylococcus aureus, NRS19
  MIC: 0.25 µg/mL (≈ 0.142 µM)
VRS11a; Staphylococcus aureus
  MIC: 8 µg/mL (≈ 4.56 µM)
VRS1; Staphylococcus aureus
  MIC: 8 µg/mL (≈ 4.56 µM)
VRS5; Staphylococcus aureus
  MIC: 4 µg/mL (≈ 2.28 µM)

## CN[C@H](CC(C)C)C(=O)N[C@H]1C(=O)N[C@@H](CC(N)=O)C(=O)N[C@H]2C(=O)N[C@H]3C(=O)N[C@H](C(=O)N[C@H](C(=O)O)c4cc(O)cc(O)c4-c4cc3ccc4O)[C@H](O)c3ccc(c(Cl)c3)Oc3cc2cc(c3O[C@@H]2O[C@H](CO)[C@@H](O)[C@H](O)[C@H]2O[C@H]2C[C@](C)(N)[C@H](O)[C@H](C)O2)Oc2ccc(cc2Cl)[C@H]1O [Vancomycin, reference compound]
NRS19; Staphylococcus aureus, NRS19
  MIC: 4 µg/mL (≈ 2.76 µM)
VRS11a; Staphylococcus aureus
  MIC: > 128 µg/mL
VRS1; Staphylococcus aureus
  MIC: > 128 µg/mL
VRS5; Staphylococcus aureus
  MIC: > 128 µg/mL
